Assay results as given in ChEMBL document CHEMBL2094260, “Malaria Box Tuberculosis Screening Data”.

test system: Mycobacterium tuberculosis; assay: MMV: Screen against Mtb, single point, non replicating, at 25uM; assay type: functional

| SMILES | inhibition at 25 µM [%] |
| --- | --- |
| FC(F)(F)c1cccc(CNC2CCN(CCc3ccccc3)CC2)c1 | 2.96 |
| CCCCCCOC(=O)C1=C(C)NC(=O)NC1c1ccccc1F (stereo not drawn) | 6.8 |
| COc1ccc(C2=C(c3ccc(OC)cc3)C3(c4ccccc4)C(=O)C2(c2ccccc2)C2C(=O)N(c4ccc(C)cc4)C(=O)C23)cc1 (stereo not drawn) | 11 |
| CCCc1c(CC)c(=N)c2ccccc2n1C | 4 |
| COc1ccc(C=C2SC(Nc3ccc(F)cc3)=NC2=O)c(OC)c1 | 7.53 |
| CCN(Cc1ccccc1)C1CCN(Cc2cc(Br)ccc2O)CC1 | 12.7 |
| COc1ccc(CNC2CCN(c3ccc(NC(=O)c4cccc(Cl)c4)cc3)CC2)cc1OC | 19.2 |
| O=C(NC1CCN(Cc2ccccc2)CC1)c1cc2nc(-c3ccc(Cl)s3)cc(C(F)(F)F)n2n1 | 15.3 |
| CC(Oc1ccc(NC(=O)c2cccs2)cc1)C(=O)c1ccc(Cl)cc1 (stereo not drawn) | -0.638 |
| COc1ccc(-c2c(C)nn3c(N)c(C#N)cnc23)cc1OC | 11.5 |
| CCCCCCc1cc2cc(-c3csc(C=Cc4ccccc4)n3)c(=O)oc2cc1O | 9.83 |
| COc1ccc(NC(=O)C2c3ccccc3C(=O)N(CC(C)C)C2c2cccs2)cc1 (stereo not drawn) | 3.3 |
| COc1ccc2c(c1)OC(O)(C(F)(F)C(F)(F)F)CC2=O (stereo not drawn) | 20.1 |
| COc1cc(-c2nc(-c3ccc(Sc4ccccc4)cc3)c(-c3ccccc3)[nH]2)cc(OC)c1O | 13.6 |
| CCC(c1ccccc1)c1nn2c(-c3cccs3)nnc2s1 (stereo not drawn) | 20.8 |
| CCCCCCc1cc(O)c2c3c(c(=O)oc2c1)CCC(C)C3 (stereo not drawn) | 11.4 |
| O=[N+]([O-])c1ccc(C=NNc2nc3ccccc3[nH]2)cc1 | 16.2 |
| O=C(CCc1ccco1)NC1CCN(CC2(c3ccc(Cl)cc3)CCC2)CC1 | 20.8 |
| O=C(Nc1ccc(-c2nc3cc(NC(=O)c4ccc(Cl)cc4)ccc3[nH]2)cc1)c1ccc(Cl)cc1 | 17.6 |
| CC(C)=CCN1CCC(C(=O)Nc2ccc(-c3nc4ccccc4[nH]3)cc2)CC1 | 17.3 |

| SMILES | inhibition at 25 µM [%] |
| --- | --- |
| COc1cccc(C(=O)NC(c2ccc(C)cc2)c2cc(Cl)c3cccnc3c2O)c1 (stereo not drawn) | 14.3 |
| O=C(CCc1ccccc1)c1ccccc1OCC(O)CN1CCCCC1 (stereo not drawn) | 0.25 |
| Cc1sc2ncnc(Sc3nc4ccccc4[nH]3)c2c1C | 22.5 |
| COc1ccc(C(=O)NC(c2ccccc2Cl)c2cc(Cl)c3cccnc3c2O)cc1 (stereo not drawn) | 5.04 |
| CN(N=O)C1=C(NC2CCCCC2)C(=O)c2ccccc2C1=O | 7.53 |
| O=C(Nc1ccccc1O)c1ccc(-c2ccc(Cl)cc2Cl)o1 | 27.6 |
| COc1ccc(C(C)=O)cc1N1C(=O)C2C(C1=O)C1(c3ccccc3)C(=O)C2(c2ccccc2)C(c2ccc(C)cc2)=C1c1ccc(C)cc1 (stereo not drawn) | 28.1 |
| COc1cc2cc(C(=O)Nc3ccccc3)c(N)nc2cc1OC | 1.39 |
| COc1cc(OC)cc(N2C(=O)N(Cc3ccc(C(C)(C)C)cc3)c3ccccc3S2(=O)=O)c1 | 13.6 |
| CSC1=NC(=Nc2c(C)cccc2C)C2(CCC(C(C)(C)C)CC2)N1c1ccc(Cl)cc1 (stereo not drawn) | 9.94 |
| Cc1ccc(CSCc2ccc(C(=O)NC3CC3)o2)cc1 | 11.3 |
| COC(=O)c1ccc(Cl)c2c1C1C=CCC1C(c1cccc3ccccc13)N2 (stereo not drawn) | -4.9 |
| COc1ccc2c(c1)C1(Nc3ccccc3-c3nc4ccccc4n31)C(=O)N2 (stereo not drawn) | 10.8 |
| Oc1c(C(Nc2ccccn2)c2cccc(Oc3ccccc3)c2)ccc2cccnc12 (stereo not drawn) | 11.8 |
| c1ccc2cc3c(Nc4ccc(N5CCOCC5)cc4)ccnc3cc2c1 | 0.164 |
| COc1cccc(NC(=O)[C@H](C(C)C)n2c(=O)[nH]c3ccccc3c2=O)c1 | 5.22 |
| CCOC(=O)c1cnc2ccc(Cl)cc2c1NCCCN(C)C | -0.993 |
| O=C(NCCCN1CCC(N2CCCCC2)CC1)C1=Cc2cc(Br)ccc2OC1 | 6.82 |
| CCOc1ccccc1CN1CCc2nc3cc(C(C)(C)C)nn3c(O)c2C1 | 1.04 |

test system: Mycobacterium tuberculosis; assay: MMV: Screen against Mtb, single point, replicating, at 25uM; assay type: functional

| SMILES | inhibition at 25 µM [%] |
| --- | --- |
| FC(F)(F)c1cccc(CNC2CCN(CCc3ccccc3)CC2)c1 | 22.8 |
| CCCCCCOC(=O)C1=C(C)NC(=O)NC1c1ccccc1F (stereo not drawn) | 9.78 |
| COc1ccc(C2=C(c3ccc(OC)cc3)C3(c4ccccc4)C(=O)C2(c2ccccc2)C2C(=O)N(c4ccc(C)cc4)C(=O)C23)cc1 (stereo not drawn) | 10.1 |
| CCCc1c(CC)c(=N)c2ccccc2n1C | 16 |
| COc1ccc(C=C2SC(Nc3ccc(F)cc3)=NC2=O)c(OC)c1 | 23.3 |
| CCN(Cc1ccccc1)C1CCN(Cc2cc(Br)ccc2O)CC1 | 16.8 |
| COc1ccc(CNC2CCN(c3ccc(NC(=O)c4cccc(Cl)c4)cc3)CC2)cc1OC | 47.3 |
| O=C(NC1CCN(Cc2ccccc2)CC1)c1cc2nc(-c3ccc(Cl)s3)cc(C(F)(F)F)n2n1 | 20.1 |
| CC(Oc1ccc(NC(=O)c2cccs2)cc1)C(=O)c1ccc(Cl)cc1 (stereo not drawn) | 2.74 |
| COc1ccc(-c2c(C)nn3c(N)c(C#N)cnc23)cc1OC | 5.83 |
| CCCCCCc1cc2cc(-c3csc(C=Cc4ccccc4)n3)c(=O)oc2cc1O | -0.392 |
| COc1ccc(NC(=O)C2c3ccccc3C(=O)N(CC(C)C)C2c2cccs2)cc1 (stereo not drawn) | 4.77 |
| COc1ccc2c(c1)OC(O)(C(F)(F)C(F)(F)F)CC2=O (stereo not drawn) | 23.4 |
| COc1cc(-c2nc(-c3ccc(Sc4ccccc4)cc3)c(-c3ccccc3)[nH]2)cc(OC)c1O | 16.5 |
| CCC(c1ccccc1)c1nn2c(-c3cccs3)nnc2s1 (stereo not drawn) | 19.3 |
| CCCCCCc1cc(O)c2c3c(c(=O)oc2c1)CCC(C)C3 (stereo not drawn) | 12.8 |
| O=[N+]([O-])c1ccc(C=NNc2nc3ccccc3[nH]2)cc1 | 16.3 |
| O=C(CCc1ccco1)NC1CCN(CC2(c3ccc(Cl)cc3)CCC2)CC1 | 31.6 |
| O=C(Nc1ccc(-c2nc3cc(NC(=O)c4ccc(Cl)cc4)ccc3[nH]2)cc1)c1ccc(Cl)cc1 | 11.7 |
| CC(C)=CCN1CCC(C(=O)Nc2ccc(-c3nc4ccccc4[nH]3)cc2)CC1 | 12.5 |

| SMILES | inhibition at 25 µM [%] |
| --- | --- |
| COc1cccc(C(=O)NC(c2ccc(C)cc2)c2cc(Cl)c3cccnc3c2O)c1 (stereo not drawn) | 10.4 |
| O=C(CCc1ccccc1)c1ccccc1OCC(O)CN1CCCCC1 (stereo not drawn) | 12.9 |
| Cc1sc2ncnc(Sc3nc4ccccc4[nH]3)c2c1C | 14.9 |
| COc1ccc(C(=O)NC(c2ccccc2Cl)c2cc(Cl)c3cccnc3c2O)cc1 (stereo not drawn) | 10.6 |
| CN(N=O)C1=C(NC2CCCCC2)C(=O)c2ccccc2C1=O | -2.12 |
| O=C(Nc1ccccc1O)c1ccc(-c2ccc(Cl)cc2Cl)o1 | 13.7 |
| COc1ccc(C(C)=O)cc1N1C(=O)C2C(C1=O)C1(c3ccccc3)C(=O)C2(c2ccccc2)C(c2ccc(C)cc2)=C1c1ccc(C)cc1 (stereo not drawn) | 22.4 |
| COc1cc2cc(C(=O)Nc3ccccc3)c(N)nc2cc1OC | 17.1 |
| COc1cc(OC)cc(N2C(=O)N(Cc3ccc(C(C)(C)C)cc3)c3ccccc3S2(=O)=O)c1 | 2.59 |
| CSC1=NC(=Nc2c(C)cccc2C)C2(CCC(C(C)(C)C)CC2)N1c1ccc(Cl)cc1 (stereo not drawn) | 1.28 |
| Cc1ccc(CSCc2ccc(C(=O)NC3CC3)o2)cc1 | 24.4 |
| COC(=O)c1ccc(Cl)c2c1C1C=CCC1C(c1cccc3ccccc13)N2 (stereo not drawn) | 12.1 |
| COc1ccc2c(c1)C1(Nc3ccccc3-c3nc4ccccc4n31)C(=O)N2 (stereo not drawn) | 0.517 |
| Oc1c(C(Nc2ccccn2)c2cccc(Oc3ccccc3)c2)ccc2cccnc12 (stereo not drawn) | -15.4 |
| c1ccc2cc3c(Nc4ccc(N5CCOCC5)cc4)ccnc3cc2c1 | 19.5 |
| COc1cccc(NC(=O)[C@H](C(C)C)n2c(=O)[nH]c3ccccc3c2=O)c1 | 7.35 |
| CCOC(=O)c1cnc2ccc(Cl)cc2c1NCCCN(C)C | 2.59 |
| O=C(NCCCN1CCC(N2CCCCC2)CC1)C1=Cc2cc(Br)ccc2OC1 | 14.7 |
| CCOc1ccccc1CN1CCc2nc3cc(C(C)(C)C)nn3c(O)c2C1 | 13.9 |
